Targets include AKT1 (UniProt P31749); CDK10 (UniProt Q15131); MAST3 (UniProt O60307); PRKCB (UniProt P05771); RIPK3 (UniProt Q9Y572); SRPK2 (UniProt P78362); UniProt P07947; UniProt P19525; UniProt Q9BUB5; UniProt Q9P289.
What all share (assay): pIC50, kinobeads binding competition
What all share (settings): cell material: Jurkat lysate

The next assay concerns the target T1, SNRK (UniProt Q9NRH2).
T1 sequence (whole entry): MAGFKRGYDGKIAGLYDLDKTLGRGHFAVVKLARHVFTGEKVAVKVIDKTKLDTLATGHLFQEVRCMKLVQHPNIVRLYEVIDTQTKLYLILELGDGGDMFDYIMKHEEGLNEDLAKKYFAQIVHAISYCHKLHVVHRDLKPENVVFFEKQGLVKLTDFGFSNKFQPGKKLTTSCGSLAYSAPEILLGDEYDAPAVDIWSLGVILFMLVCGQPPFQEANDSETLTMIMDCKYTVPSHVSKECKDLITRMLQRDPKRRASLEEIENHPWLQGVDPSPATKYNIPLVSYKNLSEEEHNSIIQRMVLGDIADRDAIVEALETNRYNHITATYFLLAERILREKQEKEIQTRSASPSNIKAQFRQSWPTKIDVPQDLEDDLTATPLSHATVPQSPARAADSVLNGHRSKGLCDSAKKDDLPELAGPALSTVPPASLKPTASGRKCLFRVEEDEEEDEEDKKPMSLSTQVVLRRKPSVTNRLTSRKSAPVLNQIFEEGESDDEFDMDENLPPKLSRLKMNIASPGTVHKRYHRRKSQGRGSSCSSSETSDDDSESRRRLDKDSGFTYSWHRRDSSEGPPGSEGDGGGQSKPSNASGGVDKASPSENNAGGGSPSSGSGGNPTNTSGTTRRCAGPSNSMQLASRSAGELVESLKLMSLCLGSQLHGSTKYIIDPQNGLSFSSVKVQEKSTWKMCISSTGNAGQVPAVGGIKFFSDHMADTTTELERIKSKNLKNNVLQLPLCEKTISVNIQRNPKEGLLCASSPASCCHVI

The target in the next assay is T2, TAOK2 (UniProt Q9UL54).
T2 sequence (whole entry): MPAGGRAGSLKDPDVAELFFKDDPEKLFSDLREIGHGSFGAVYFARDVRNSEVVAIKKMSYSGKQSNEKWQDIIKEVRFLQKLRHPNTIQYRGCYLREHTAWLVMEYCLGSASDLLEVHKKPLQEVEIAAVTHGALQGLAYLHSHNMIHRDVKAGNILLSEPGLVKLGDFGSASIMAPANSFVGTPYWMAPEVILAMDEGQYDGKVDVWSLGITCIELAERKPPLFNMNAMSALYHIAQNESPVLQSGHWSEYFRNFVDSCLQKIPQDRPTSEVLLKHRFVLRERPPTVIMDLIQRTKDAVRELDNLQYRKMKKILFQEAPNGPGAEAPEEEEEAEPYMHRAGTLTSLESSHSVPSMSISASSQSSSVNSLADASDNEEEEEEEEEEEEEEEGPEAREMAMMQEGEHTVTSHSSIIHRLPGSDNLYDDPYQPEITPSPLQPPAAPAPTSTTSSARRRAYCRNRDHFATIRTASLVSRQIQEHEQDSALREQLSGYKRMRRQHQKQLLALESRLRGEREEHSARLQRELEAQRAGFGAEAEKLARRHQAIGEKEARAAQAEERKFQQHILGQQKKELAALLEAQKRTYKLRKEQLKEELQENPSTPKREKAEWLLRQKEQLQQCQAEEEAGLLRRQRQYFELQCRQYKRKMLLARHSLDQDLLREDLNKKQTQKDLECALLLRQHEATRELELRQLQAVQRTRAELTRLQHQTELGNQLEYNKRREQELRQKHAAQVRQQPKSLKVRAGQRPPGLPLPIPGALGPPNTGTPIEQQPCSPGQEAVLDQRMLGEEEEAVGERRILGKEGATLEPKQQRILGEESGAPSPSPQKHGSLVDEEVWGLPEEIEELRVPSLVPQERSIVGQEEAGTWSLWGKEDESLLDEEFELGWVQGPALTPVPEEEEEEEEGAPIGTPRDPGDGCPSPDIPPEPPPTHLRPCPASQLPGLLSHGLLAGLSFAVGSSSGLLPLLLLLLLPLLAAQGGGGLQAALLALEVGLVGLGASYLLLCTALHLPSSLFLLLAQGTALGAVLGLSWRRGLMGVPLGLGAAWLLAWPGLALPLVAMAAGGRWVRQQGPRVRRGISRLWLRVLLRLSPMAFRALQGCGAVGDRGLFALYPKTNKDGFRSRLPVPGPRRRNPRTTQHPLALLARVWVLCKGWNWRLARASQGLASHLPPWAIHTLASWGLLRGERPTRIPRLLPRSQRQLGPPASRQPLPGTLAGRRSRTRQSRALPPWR

± gives the standard deviation of the averaged measurements.

Chain of MAST3 (O60307 whole entry): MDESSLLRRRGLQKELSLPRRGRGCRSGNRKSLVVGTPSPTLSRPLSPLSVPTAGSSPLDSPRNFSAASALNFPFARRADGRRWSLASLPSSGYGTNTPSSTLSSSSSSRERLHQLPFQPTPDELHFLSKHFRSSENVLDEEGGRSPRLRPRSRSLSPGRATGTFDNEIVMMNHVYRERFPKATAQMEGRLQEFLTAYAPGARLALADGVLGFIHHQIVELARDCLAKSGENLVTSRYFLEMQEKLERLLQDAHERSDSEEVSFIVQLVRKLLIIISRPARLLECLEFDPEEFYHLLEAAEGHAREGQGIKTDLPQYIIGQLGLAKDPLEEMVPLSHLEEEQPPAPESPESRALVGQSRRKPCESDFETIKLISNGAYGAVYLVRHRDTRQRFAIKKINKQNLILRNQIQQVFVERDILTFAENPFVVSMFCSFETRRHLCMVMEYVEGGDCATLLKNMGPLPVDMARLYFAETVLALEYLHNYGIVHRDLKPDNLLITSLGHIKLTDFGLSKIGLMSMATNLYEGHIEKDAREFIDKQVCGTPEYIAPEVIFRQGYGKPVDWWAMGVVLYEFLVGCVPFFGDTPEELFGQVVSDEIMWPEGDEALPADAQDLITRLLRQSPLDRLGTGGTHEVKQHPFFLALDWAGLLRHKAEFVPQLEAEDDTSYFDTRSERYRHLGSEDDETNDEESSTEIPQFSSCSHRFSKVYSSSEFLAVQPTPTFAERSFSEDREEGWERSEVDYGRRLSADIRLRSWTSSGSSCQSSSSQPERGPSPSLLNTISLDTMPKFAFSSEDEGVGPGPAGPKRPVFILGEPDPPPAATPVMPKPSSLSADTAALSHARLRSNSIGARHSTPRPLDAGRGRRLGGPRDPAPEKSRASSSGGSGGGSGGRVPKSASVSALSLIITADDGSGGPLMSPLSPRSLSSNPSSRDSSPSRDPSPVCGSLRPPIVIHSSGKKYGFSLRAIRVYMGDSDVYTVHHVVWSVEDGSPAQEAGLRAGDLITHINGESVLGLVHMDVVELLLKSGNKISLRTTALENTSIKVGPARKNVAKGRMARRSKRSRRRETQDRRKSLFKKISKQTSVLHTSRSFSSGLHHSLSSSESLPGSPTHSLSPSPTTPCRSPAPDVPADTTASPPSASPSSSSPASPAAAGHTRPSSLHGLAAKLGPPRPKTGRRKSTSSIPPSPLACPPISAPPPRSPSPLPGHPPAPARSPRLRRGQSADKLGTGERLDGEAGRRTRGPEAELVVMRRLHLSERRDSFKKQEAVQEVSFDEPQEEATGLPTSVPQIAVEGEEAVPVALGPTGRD
Chain of PRKCB (P05771 whole entry, looked up): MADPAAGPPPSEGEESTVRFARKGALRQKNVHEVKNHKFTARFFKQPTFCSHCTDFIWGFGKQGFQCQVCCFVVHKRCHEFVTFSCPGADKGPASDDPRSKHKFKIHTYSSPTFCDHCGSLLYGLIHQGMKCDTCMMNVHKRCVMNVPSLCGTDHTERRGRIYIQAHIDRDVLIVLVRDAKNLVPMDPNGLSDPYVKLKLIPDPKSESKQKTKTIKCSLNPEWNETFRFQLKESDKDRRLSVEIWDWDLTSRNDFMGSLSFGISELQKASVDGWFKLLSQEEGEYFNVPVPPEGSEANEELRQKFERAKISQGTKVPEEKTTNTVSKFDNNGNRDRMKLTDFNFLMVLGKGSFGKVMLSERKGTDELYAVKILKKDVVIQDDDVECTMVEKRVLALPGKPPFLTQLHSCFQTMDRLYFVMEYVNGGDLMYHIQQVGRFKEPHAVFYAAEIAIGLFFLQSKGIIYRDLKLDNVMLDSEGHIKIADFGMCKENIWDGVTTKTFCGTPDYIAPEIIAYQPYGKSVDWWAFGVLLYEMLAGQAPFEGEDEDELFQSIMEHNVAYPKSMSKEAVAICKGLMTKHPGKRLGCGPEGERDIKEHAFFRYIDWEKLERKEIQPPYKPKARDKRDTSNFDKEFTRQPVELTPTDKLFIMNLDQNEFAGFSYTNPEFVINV
Chain of SRPK2 (P78362 whole entry, looked up): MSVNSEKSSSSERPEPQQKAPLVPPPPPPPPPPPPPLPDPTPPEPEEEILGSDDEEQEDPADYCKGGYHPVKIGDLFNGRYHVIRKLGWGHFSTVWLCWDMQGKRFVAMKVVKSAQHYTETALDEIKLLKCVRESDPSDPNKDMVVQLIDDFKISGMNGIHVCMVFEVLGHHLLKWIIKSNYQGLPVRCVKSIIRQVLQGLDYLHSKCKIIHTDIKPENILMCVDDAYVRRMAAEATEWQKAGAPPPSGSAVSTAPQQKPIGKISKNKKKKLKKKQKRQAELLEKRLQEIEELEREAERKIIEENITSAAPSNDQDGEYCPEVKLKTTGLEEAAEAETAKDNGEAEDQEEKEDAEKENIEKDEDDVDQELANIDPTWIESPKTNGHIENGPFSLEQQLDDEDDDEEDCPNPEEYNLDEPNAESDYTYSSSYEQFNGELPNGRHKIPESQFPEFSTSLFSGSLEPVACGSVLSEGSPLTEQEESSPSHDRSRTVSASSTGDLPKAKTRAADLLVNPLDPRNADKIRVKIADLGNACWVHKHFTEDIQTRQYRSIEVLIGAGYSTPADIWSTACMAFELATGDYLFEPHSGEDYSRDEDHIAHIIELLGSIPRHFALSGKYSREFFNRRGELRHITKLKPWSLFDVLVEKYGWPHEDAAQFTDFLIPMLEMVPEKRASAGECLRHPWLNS
Chain of AKT1 (P31749 whole entry): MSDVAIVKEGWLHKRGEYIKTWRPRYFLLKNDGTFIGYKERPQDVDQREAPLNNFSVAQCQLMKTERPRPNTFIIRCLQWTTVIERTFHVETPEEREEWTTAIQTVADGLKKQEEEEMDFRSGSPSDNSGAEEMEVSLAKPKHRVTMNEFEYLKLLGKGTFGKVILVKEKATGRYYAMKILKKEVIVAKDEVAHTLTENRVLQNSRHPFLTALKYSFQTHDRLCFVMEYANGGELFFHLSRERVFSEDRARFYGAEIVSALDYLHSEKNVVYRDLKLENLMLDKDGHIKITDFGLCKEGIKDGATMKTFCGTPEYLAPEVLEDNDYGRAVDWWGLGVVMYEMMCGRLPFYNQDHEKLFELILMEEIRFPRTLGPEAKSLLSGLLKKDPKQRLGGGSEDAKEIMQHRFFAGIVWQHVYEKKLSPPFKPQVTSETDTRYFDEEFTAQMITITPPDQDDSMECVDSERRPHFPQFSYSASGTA
Chain of RIPK3 (Q9Y572 whole entry, looked up): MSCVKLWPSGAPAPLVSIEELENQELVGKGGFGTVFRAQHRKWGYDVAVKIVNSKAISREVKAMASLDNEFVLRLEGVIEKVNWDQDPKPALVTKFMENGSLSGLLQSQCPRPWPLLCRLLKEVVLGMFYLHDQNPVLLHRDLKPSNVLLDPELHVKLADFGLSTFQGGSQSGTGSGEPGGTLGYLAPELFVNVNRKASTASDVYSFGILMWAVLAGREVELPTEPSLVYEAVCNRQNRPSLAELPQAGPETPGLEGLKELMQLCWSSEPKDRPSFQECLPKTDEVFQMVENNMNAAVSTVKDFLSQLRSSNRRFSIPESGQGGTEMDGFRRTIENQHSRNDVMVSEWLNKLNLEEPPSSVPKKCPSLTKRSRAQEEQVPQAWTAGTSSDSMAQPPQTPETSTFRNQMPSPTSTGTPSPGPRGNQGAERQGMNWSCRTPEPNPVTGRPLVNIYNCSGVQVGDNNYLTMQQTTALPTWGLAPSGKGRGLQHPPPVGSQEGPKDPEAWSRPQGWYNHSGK
Chain of UniProt Q9BUB5 (Q9BUB5 whole entry, looked up): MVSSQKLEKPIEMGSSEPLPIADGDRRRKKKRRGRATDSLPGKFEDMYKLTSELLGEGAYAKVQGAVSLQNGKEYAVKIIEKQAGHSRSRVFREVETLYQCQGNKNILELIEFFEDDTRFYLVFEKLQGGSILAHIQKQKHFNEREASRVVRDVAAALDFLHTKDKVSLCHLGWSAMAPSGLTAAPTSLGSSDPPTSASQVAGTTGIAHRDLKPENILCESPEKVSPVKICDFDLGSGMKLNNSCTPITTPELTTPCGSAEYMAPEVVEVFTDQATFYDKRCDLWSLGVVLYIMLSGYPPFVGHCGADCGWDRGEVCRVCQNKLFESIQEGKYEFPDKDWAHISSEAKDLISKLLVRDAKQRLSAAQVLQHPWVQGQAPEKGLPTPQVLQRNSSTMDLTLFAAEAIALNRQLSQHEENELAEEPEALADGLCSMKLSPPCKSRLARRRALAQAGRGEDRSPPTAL
Chain of UniProt Q9P289 (Q9P289 whole entry, looked up): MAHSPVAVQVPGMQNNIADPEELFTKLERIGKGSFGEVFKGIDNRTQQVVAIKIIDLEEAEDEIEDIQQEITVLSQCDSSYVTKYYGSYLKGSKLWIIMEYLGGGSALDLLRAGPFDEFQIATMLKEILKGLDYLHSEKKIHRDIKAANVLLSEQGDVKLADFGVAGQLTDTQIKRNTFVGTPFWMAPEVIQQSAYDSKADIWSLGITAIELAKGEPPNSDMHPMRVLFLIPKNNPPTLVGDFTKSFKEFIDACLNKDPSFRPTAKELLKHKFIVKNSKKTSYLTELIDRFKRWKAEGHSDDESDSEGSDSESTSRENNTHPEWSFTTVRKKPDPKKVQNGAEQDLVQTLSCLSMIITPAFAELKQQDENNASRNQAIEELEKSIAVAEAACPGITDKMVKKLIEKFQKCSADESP
Chain of CDK10 (Q15131 whole entry): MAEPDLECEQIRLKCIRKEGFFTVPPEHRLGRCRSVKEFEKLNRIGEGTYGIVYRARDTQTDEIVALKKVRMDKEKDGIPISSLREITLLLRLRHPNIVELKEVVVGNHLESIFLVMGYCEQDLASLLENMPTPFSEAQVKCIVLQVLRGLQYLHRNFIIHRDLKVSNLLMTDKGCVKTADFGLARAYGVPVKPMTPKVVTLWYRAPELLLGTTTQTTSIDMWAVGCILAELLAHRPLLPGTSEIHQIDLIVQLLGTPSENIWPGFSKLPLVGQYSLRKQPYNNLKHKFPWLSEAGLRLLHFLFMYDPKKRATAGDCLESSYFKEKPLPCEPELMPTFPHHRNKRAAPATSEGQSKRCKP

For the compound `CCc1cnn2c(NCc3ccc[n+]([O-])c3)cc(N3CCCC[C@H]3CCO)nc12` [dinaciclib], the negative-log IC50 (pIC50) at AKT1 is under 4.52; on CDK10, 7.86 ± 0.31; at MAST3, under 4.52; on PRKCB it was under 4.52; on RIPK3, under 4.52; at SNRK, under 4.52. Further, the negative-log IC50 (pIC50) is under 4.52 on SRPK2; 5.6 ± 0.085 on TAOK2; under 4.52 at UniProt P07947; under 4.52 at UniProt P19525; under 4.52 at UniProt Q9BUB5; under 4.52 at UniProt Q9P289.

Usually pIC50 stands for the negative decadic logarithm of the IC50, by convention in mol/L.

(Values after the supplement of paper PMC12076712.)
